From paper PMC6142817, “New Urea Derivatives Are Effective Anti-senescence Compounds Acting Most Likely via a Cytokinin-Independent Mechanism” (Frontiers in Plant Science, 2018)
Like-named read-outs stand apart in the source and are kept apart here.

Legend:
[1] = test system: excised wheat leaves (chlorophyll degradation in the dark); assay: Wheat leaf senescence assay (WLSA); type: cell-based, Triticum aestivum cv. Hereward
Experimental: (§1) Tobacco callus, Amaranthus and Wheat leaf senescence assay (WLSA) were performed as described by Holub et al. ([1998]) including the number of repetitions in each assay. An exception to the published protocols was that the tobacco callus assay was performed in 6-well microtiter plates (with each well containing 3 ml of Murashige Skoog medium into which 0.1 g of callus was added). Each compound was tested at least twice in each assay and in a wider concentration range to obtain concentration-dependent activity curves. IC50 means compound concentration at which chlorophyll degradation is inhibited by 50% and EC50 means half the maximal effective concentration.
(§2) Amaranthus assay evaluates the induction of betacyanin synthesis in Amaranthus (Amaranthus caudatus var. atropurpurea) cotyledons, which is induced by cytokinins (Bamberger and Mayer, [1960]). The WLSA evaluates the ability of compounds to retard chlorophyll degradation in excised wheat leaves that are kept in the dark. The wheat leaf segments (Triticum aestivum cv. Hereward) were used in all other experiments requiring wheat. Arabidopsis (Arabidopsis thaliana) leaf senescence assay was performed with detached leaves from 30-day-old plants, which were grown in soil in phytotron under standard conditions (Rivero et al., [2014]). Four leaves of a combined weight of 60 mg were placed in a six-well plate and stored in the dark for 12 days at 22°C. The leaves (except the fresh control leaves) floated on water solutions of tested compounds. Fresh control leaves were leaves detached from a plant and immediately used for chlorophyll determination. The duration of the senescence assay of Arabidopsis leaves was prolonged to highlight the difference in chlorophyll content between a negative control and treatments. Arabidopsis leaves were losing chlorophyll more slowly than wheat leaves. Chlorophyll extraction and spectrophotometric determination of its content was done according to Holub et al. ([1998]).

[2] = test system: cytokinin-dependent tobacco callus; assay: Tobacco callus bioassay; type: cell-based; conditions: for inhibition of callus growth at the highest concentration tested: 100 μM
Experimental: as §1

[3] = test system: Amaranthus caudatus cotyledon-hypocotyl explants; assay: Amaranthus bioassay (betacyanin synthesis); type: cell-based, Amaranthus caudatus var. atropurpurea
Experimental: as §1, §2

[4] = test system: detached Arabidopsis leaves (chlorophyll loss in the dark); assay: Arabidopsis leaf senescence assay; type: cell-based, Arabidopsis thaliana; conditions: 1 μM, 12 days in the dark
Source text: as §2

[5] = test system: ARR5:GUS reporter gene; assay: Arabidopsis ARR5:GUS reporter gene assay; type: in vivo, Arabidopsis thaliana; conditions: for EC50: Arabidopsis thaliana, transgenic Arabidopsis plants, read-out: ARR5:GUS activation EC50; for ARR5:GUS activity, % of BA activity: 1 μM BA = 100%; for ARR5:GUS activation (in words): in vivo
Experimental: Transgenic Arabidopsis plants (Arabidopsis thaliana (L.) Heynh. accession Wassilewskija) harboring the GUS reporter gene (gene for β-glucuronidase) fused to 1.6 kb of the ARR5 (PARR5−GUS) gene promoter (D'Agostino et al., [2000]) were kindly provided by professor Thomas Schmülling. The assay was performed according to Romanov et al. ([2002]). β-Glucuronidase (GUS) activity was quantitatively determined by measuring fluorescence of 4-methylumbelliferyl (MU) on a Synergy H4 hybrid reader (Biotek, Winooski, VT) with excitation and emission wavelengths of 365 and 445 nm, respectively. GUS specific activity was determined as nmol MU × mg protein^−1 × h^−1. This was calculated by dividing the relative fluorescence units (obtained per hour) by protein content of the same sample. Protein extraction was done as described by Romanov et al. ([2002]) but its content was determined using a bicinchoninic acid reagent (Smith et al., [1985]). Finally we expressed the GUS activity in samples as a relative percentage, the activity of 1 μM BA being set as 100% activation. The concentration-dependent activity curves and EC50 values (for TDZ, tZ, BA, TD-iP, and TD-tZ) were constructed using Scion image program.

[6] = biological target: T1, AHK3 (Arabidopsis thaliana, UniProt Q9C5U1); assay: Cytokinin receptor activation assay in E. coli (AHK3); type: cell-based
T1 construct: expressed in transfected cells; host or cells: Escherichia coli strain KMI001, plasmid pSTV28-AHK3
T1 sequence (Q9C5U1 1-1036): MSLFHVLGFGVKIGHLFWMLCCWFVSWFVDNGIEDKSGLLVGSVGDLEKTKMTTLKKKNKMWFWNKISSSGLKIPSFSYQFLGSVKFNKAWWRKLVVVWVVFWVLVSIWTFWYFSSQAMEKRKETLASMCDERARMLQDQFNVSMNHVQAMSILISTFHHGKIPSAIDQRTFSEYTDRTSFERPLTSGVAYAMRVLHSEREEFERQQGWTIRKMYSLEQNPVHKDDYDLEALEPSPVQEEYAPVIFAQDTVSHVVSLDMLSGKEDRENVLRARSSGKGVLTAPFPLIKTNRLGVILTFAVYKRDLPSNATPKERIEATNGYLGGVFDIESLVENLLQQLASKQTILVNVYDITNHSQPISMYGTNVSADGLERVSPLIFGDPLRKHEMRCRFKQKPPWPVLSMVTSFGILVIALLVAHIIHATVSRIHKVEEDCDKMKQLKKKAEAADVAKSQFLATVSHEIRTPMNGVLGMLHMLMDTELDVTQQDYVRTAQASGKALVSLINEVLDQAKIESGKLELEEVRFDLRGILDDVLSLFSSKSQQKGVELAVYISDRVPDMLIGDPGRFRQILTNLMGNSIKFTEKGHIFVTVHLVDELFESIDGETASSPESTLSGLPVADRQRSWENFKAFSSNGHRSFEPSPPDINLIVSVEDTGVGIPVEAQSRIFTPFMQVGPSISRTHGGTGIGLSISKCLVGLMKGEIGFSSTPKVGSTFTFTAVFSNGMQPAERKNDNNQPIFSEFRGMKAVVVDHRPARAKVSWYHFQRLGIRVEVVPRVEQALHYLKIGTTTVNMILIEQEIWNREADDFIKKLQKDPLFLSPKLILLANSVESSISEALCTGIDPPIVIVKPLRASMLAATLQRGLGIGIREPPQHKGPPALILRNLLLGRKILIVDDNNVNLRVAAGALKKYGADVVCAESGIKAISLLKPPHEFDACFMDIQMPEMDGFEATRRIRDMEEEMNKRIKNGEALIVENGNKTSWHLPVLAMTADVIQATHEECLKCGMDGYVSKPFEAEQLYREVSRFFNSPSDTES
Source text: (§3) The activity of this enzyme is finally measured in the assay and corresponds to the ability of the tested compound to activate this cytokinin receptor. Both assays were done at least twice and the presented graphs are the most representative examples.

[7] = biological target: CRE1/AHK4 (Arabidopsis thaliana, UniProt Q9C5U0); assay: Cytokinin receptor activation assay in E. coli (CRE1/AHK4); type: cell-based; set-up: expressed in transfected cells; host or cells: Escherichia coli strain KMI001, plasmid pIN-IIIAHK4; conditions: E. coli bacterial receptor assay; read-out: CRE1/AHK4 receptor activation EC50
Chain of CRE1/AHK4 (Q9C5U0 whole entry): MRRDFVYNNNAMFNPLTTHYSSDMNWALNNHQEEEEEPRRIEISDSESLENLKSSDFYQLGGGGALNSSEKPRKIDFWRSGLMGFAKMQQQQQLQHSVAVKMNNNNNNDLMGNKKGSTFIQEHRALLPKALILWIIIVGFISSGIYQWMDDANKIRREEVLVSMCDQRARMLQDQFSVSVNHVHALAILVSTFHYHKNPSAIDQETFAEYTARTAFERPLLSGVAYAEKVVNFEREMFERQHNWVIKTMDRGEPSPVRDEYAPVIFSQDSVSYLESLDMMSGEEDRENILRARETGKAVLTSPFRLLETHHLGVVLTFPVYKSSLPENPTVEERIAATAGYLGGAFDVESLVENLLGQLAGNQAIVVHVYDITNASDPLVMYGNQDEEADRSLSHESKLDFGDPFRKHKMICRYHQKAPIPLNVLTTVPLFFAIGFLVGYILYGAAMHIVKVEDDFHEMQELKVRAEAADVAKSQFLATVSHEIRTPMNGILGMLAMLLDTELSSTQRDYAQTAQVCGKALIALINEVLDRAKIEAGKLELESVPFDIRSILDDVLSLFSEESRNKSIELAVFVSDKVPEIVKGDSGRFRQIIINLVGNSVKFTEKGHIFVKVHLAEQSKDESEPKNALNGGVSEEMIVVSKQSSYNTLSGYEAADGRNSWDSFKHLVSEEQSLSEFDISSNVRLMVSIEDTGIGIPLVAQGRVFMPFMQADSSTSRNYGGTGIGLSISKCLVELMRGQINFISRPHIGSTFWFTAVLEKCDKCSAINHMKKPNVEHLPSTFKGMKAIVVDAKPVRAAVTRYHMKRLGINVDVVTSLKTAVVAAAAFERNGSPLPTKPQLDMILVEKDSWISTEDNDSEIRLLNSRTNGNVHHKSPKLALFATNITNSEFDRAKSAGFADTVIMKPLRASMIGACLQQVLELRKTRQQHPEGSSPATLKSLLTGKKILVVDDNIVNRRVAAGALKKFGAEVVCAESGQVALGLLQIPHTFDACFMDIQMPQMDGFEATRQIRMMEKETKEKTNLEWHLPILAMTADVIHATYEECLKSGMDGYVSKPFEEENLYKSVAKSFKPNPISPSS
Source text: as §3

[8] = Triticum aestivum, 120 h, detached wheat leaves in the dark, 5 days, concentration at which chlorophyll degradation is inhibited by 50%, read-out: Senescence bioassay (IC50)
[9] = Nicotiana tabacum, half the maximal effective concentration, N.A. = not active, read-out: Tobacco callus bioassay (EC50)
[10] = Amaranthus caudatus, betacyanin synthesis, N.A. = not active, read-out: Amaranthus bioassay (EC50)
[11] = betacyanin synthesis, N.A. = not active
[12] = detached wheat leaves in the dark, 5 days, concentration at which chlorophyll degradation is inhibited by 50%, read-out: Senescence bioassay (IC50)
[13] = half the maximal effective concentration, N.A. = not active
[14] = E. coli bacterial receptor assay, read-out: AHK3 receptor activation EC50

Compound	IC50 [1, 8] [µM]	EC50 [2, 9] [µM]	EC50 [3, 10] [µM]	further results
c1ccc(CNc2ncnc3nc[nH]c23)cc1 [BA, N^6-benzyladenine, reference compound]	> 100	0.06	0.75	% more of chlorophyll retained than DMSO (negative control) [4]: 65%; EC50 [5]: 0.076 µM
O=C(NCCO)Nc1cnns1 [Compound 1]	26	15	–	Amaranthus bioassay (EC50, μM) [3, 11]: inactive
O=C(NCCCO)Nc1cnns1 [Compound 2]	< 10	7	75.5	IC50 [1, 12]: 8 µM
COCCCNC(=O)Nc1cnns1 [Compound 4]	19	2.2	16.7	–
CC(O)CNC(=O)Nc1cnns1 (centres unmarked) [Compound 5]	–	7.1	–	Amaranthus bioassay (EC50, μM) [3, 11]: inactive; ARR5:GUS activity, % of BA activity ([5]; compound at 10 μM): 55–65%
COCCN(C)C(=O)Nc1cnns1 [Compound 6]	25	–	–	Tobacco callus bioassay (EC50, μM) [2, 13]: completely inactive; Amaranthus bioassay (EC50, μM) [3, 11]: inactive
COCCN(CCOC)C(=O)Nc1cnns1 [Compound 7]	62	–	–	Tobacco callus bioassay (EC50, μM) [2, 13]: completely inactive; Amaranthus bioassay (EC50, μM) [3, 11]: inactive; ARR5:GUS activation (in words) [5]: completely inactive
COC(CNC(=O)Nc1cnns1)OC [Compound 8]	–	2.4	16.7	ARR5:GUS activity, % of BA activity ([5]; compound at 10 μM): 55–65%
COC(=O)CNC(=O)Nc1cnns1 [Compound 9]	> 100	70	> 100	–
COCC(C)NC(=O)Nc1cnns1 (centres unmarked) [Compound 10]	< 10	3.1	26.5	IC50 [1, 12]: 8.6 µM
CCOCCNC(=O)Nc1cnns1 [Compound 11]	83	–	> 100	Tobacco callus bioassay (EC50, μM) [2, 13]: completely inactive; ARR5:GUS activation (in words) [5]: completely inactive
C#CCNC(=O)Nc1cnns1 [Compound 12]	17	2.4	15.3	–
C=CCNC(=O)Nc1cnns1 [Compound 13]	< 10	1.6	14.2	IC50 [1, 12]: 7.1 µM; ARR5:GUS activity, % of BA activity ([5]; compound at 10 μM): 55–65%
O=C(NCCCl)Nc1cnns1 [Compound 14]	–	–	–	IC50 ([1]; Triticum aestivum, 120 h, read-out: Senescence bioassay (IC50, μM)): 14 µM; EC50 ([2]; Nicotiana tabacum, read-out: Tobacco callus bioassay (EC50, μM)): 0.87 µM; Tobacco callus bioassay (EC50, μM) [2, 13]: sub-micromolar range; EC50 ([3]; Amaranthus caudatus, read-out: Amaranthus bioassay (EC50, μM)): 10.8 µM; EC50 [6]: 15 µM; ARR5:GUS activity, % of BA activity ([5]; compound at 1 μM): 65%
CN(C)CCNC(=O)Nc1cnns1 [Compound 15]	–	–	–	Tobacco callus bioassay (EC50, μM) [2, 13]: completely inactive; Amaranthus bioassay (EC50, μM) [3, 11]: inactive; ARR5:GUS activation (in words) [5]: completely inactive
CC(CO)CCNc1ncnc2nc[nH]c12 (centres unmarked) [DHZ, dihydrozeatin, reference compound]	> 100	0.065	10	–
CC(CO)CCNC(=O)Nc1cnns1 (centres unmarked) [TD-DHZ, N-(4-hydroxy-3-methyl-butyl)-N′-1,2,3-thiadiazol-5-yl-urea]	56	0.82	43	times less active than DHZ in tobacco callus assay [2]: 10 times
CC(C)=CCNC(=O)Nc1cnns1 [TD-iP, N-2-isopentenyl-N′-1,2,3-thiadiazol-5-yl-urea]	93	0.017	1.1	inhibition of callus growth at the highest concentration tested [2]: did not inhibit the growth of callus; EC50 [6, 14]: 1.4 µM; EC50 [5]: 0.065 µM; EC50 [7]: 9.4 µM
C/C(=C\CNC(=O)Nc1cnns1)CO [TD-tZ, N-[(E)-4-hydroxy-3-methyl-but-2-enyl]-N′-1,2,3-thiadiazol-5-yl-urea]	13	0.01	1.5	inhibition of callus growth at the highest concentration tested [2]: did not inhibit the growth of callus; EC50 [6, 14]: 0.19 µM; EC50 [5]: 0.52 µM; EC50 [7]: 32 µM
N^6-isopentenyladenine [iP, reference compound]	–	–	–	IC50 [1, 12]: > 200 µM; EC50 ([2]; half the maximal effective concentration, N.A. = not active, read-out: Tobacco callus bioassay (EC50)): 0.013 µM; EC50 ([3]; betacyanin synthesis, N.A. = not active, read-out: Amaranthus bioassay (EC50)): 2 µM
